# Patent US20250049911A1, “I[…] FOR IMMUNOTHERAPEUTIC AND OTHER USES” (priority 2021, published 2025)
# B1: IL-7 (protein, UniProt P13232 26-177, looked up)
# Interleukin-7: DCDIEGKDGKQYESVLMVSIDQLLDSMKEIGSNCLNNEFNFFKRHICDANKEGMFLFRAARKLRQFLKMNSTGDFDLHLLKVSEGTTILLNCTGQVKGRKPAALGEAQPTKSLEENKSLKEQKKLNDLCFLKRLLQEIKTCWNKILMGTKEH
# Legend:
# [1] = tested on: primary human naïve CD8+ T cells; type: cell-based
# murine CD8+ T cells = assay: IFN-γ expression and proliferation of murine CD8+ T cells; type: cell-based, mouse
# CoV2 RBD protein = tested on: CoV2 RBD protein; set-up: species or system SARS-CoV-2; settings: in vivo
Molecule,development of TMSCs [1],TMSC formation [1],further results
6-bromo-substituted indirubin [BIO],promoted the development of TMSCs,–,–
O=C1Cc2c([nH]c3ccc(Br)cc23)-c2ncccc2N1 [1-Azakenpaullone],promoted the development of TMSCs,–,–
CC(=O)O/N=C1/C(=C2/C(=O)Nc3cc(Br)ccc32)Nc2ccccc21 [BIO-acetoxime],promoted the development of TMSCs,–,–
Nc1cccc(-c2cc3c(Oc4cccc(O)c4)ncnc3[nH]2)c1.O=C(O)C(F)(F)F.O=C(O)C(F)(F)F [TWS119],–,could not induce TMSC formation,IFN-γ expression (murine CD8+ T cells; 4 days post treatment): inhibited; T cell proliferation (murine CD8+ T cells; CFSE proliferation staining): inhibited
IL-15,–,only a moderate advantage,TMSC expansion in culture [1]: significantly expanded TMSCs
Polyinosinic:polycytidylic acid [poly(I:C)],–,–,humoral response (CoV2 RBD protein): strong humoral response; ratio of IgG2b to IgG1 titer (CoV2 RBD protein): balanced Th1/Th2 profile or Th2-dominant response
B1,–,only a moderate advantage,TMSC expansion in culture [1]: significantly expanded TMSCs
